Results as given in patent publication US20140248634A1, “VIMENTIN AS A BIOMARKER FOR THE PROGRESSION OF MYELOPROLIFERATIVE NEOPLASMS” (University of Florida Research Foundation, priority 2011, published 2014).
“Also recorded” adds a separate entry of the source. Starred links: 1 amine or outer side, 2 acyl side, 3 side chain; linkers in the order of their positions; H or OH if unused. Non-standard residues stand in square brackets, D forms with d. Residues, ends and D or L forms follow the SMILES beside them. *: point of attachment. hPhe = N[C@@H](CCc1ccccc1)C(=O)O; Morpholide = C1CN(*)CCO1; Cbz = O=C(OCc1ccccc1)*; CO = O=C([*:1])[*:2]; CH2F = FC*

Experiments:
[1] = tested on: vimentin intermediate filaments; assay: Indirect immunofluorescence of vimentin in HEL cells; format: cell-based, human; conditions: 25 μM, 24 and 36 hr
Protocol: HEL cells were cultured in RPMI in 100 mm dishes and treated with 25 μM G6 for the indicated periods of time. Following treatment, the cells were centrifuged, washed and resuspended in 1×PBS. Cells were then plated onto poly-L-lysine coated 8-chamber slides (Santa Cruz Biotechnology) and fixed at −20° C. in a mixture of 50% methanol and 50% acetone for 10 minutes. The fixed cells were then permeabilized with 0.2% Triton X-100 and blocked with 5% goat serum for 30 minutes at room temperature. The samples were then incubated overnight at 4° C. with a primary antibody of mouse anti-vimentin (BD Biosciences, 1:100). The next day, the cells were washed 4× with PBS at room temperature. The samples were then incubated with a FITC-conjugated anti-mouse secondary antibody (Santa Cruz Biotechnology) for one hour at room temperature. The cells were again washed with PBS, mounted with UltraCruz DAPI containing mounting media (Santa Cruz Biotechnology) and sealed with a cover slip. These cells were imaged using a 100× objective on an inverted fluorescence microscope (Olympus).

vimentin [2] = assay: 2-D differential in gel electrophoresis (2-D DIGE) of HEL cell proteins; format: cell-based, human; conditions: HEL cells, 25 μM, 12 hours, vs 0.25% DMSO
Protocol: HEL cells treated either with vehicle control DMSO or 25 μM G6 for 12 hours. The cell pellets were resuspended in ice cold buffer containing 0.3% SDS, 20 mM Tris pH 8.0, 100 mM DTT, 10 μl protease inhibitor cocktail III (Calbiochem), 5 mM MgCl2 and 250 units of benzonase. The cell suspension was homogenized by sonication. Protein was precipitated with 9 volumes of ice cold 10% trichloroacetic acid (TCA) in acetone overnight at 4° C. Precipitated proteins were then dissolved in solubilization buffer (7 M urea, 2 M thiourea, 4% CHAPS, 0.2% SDS and 20 mM Tris, pH 8.0). After centrifugation at 43,000 rpm for 30 min, solubilized protein in the supernatant was quantified using the EZQ Protein Assay Kit (Invitrogen). Proteins (100 μg per sample) were minimally labeled with CyDye (GE Healthcare) as per the manufacturer's protocol. An internal standard, which is loaded on every gel, was created by mixing equal amounts of protein from all samples. Proteins from the DMSO treated samples were labeled with Cy3 (green) and the G6 treated samples were labeled with Cy5 (red). The internal standard was labeled with Cy2 (blue). […] The digital image was then analyzed with DeCyder 2D version 7.0 GE Healthcare). Information from replicate gels was analyzed with BVA Module (Biological Variation Analysis). […]

vimentin [3] = assay: Western blotting of HEL cell lysates with anti-vimentin antibody; format: cell-based, human; conditions: HEL cells; for cleavage of vimentin intermediate filaments in the viability samples: 30 μM G6 or 2% IDPN, 0, 6, 12, 24 or 48 hours; for effect on full-length vimentin, Jak2 vs non-Jak2 inhibitors: increasing concentrations
Protocol: Protein concentrations in the whole cell lysates were determined using a Bradford assay (Bio-Rad). Cell lysates were then resuspended in SDS sample buffer. Whole cell lysates (˜30 μg) were separated by SDS-PAGE and then transferred onto nitrocellulose membranes for analysis by western blotting.
(§1) Nitrocellulose membranes were first blocked with 5% milk/TBST solution at room temperature and then probed first with the different indicated primary antibodies overnight at 4° C. followed by the respective secondary antibodies (1:4000, GE Healthcare). The immuno-reactive bands were then visualized using the enhanced chemiluminescence system (Western Lightning Ultra, Perkin-Elmer). The following antibodies were used at the indicated dilutions: vimentin (Abcam and BD Biosciences, each at 1:500), STAT1 (Santa Cruz Biotechnology, 1:1000), and β-actin (Cell Signaling, 1:500).

vimentin protein = assay: Xenograft model of Jak2-V617F expressing HEL cells in NOD/SCID mice, bone marrow anti-vimentin immunohistochemistry; format: in vivo; conditions: NOD/SCID mice with HEL cells, 21 days
Text: The xenograft model of Jak2-V617F expressing HEL cells in NOD/SCID mice has been described previously (15). Briefly, 3 months old NOD/SCID mice were randomized into 5 groups (n=6 per group). […] All other groups received a single tail vein injection of 2×10^6 Jak2-V617F positive HEL cells. Three weeks after HEL cell injection, the mice developed symptoms of a fully penetrant bone marrow malignancy. The mice then began receiving intraperitoneal injections of either vehicle control (DMSO) or G6 at doses of 0.1, 1, and 10 mg/kg/day for the next 21 days. At the end of the three week treatment period, all groups of mice were euthanized and bone marrow tissues were fixed in 10% neutral-buffered formalin and embedded in paraffin.
Paraffin embedded bone marrow sections from each treatment group were analyzed by antivimentin immunohistochemistry. Antigen retrieval was carried out first by microwaving at 95° C. for 20 min in 1 mM EDTA-NaOH solution, pH 8.0. The section were then cooled, blocked with Protein Block (DAKO), and incubated with antivimentin antibody (Abcam, 1:100) for 2 hours at room temperature. Antigen-antibody comeplexes were detected using biotinylated secondary antibodies and streptavidin-peroxidase substrate (DAKO). Stained sections were then analyzed via a standard light microscope (Nikon) at 40× and 100× magnifications.

caspase 3/7 = conditions: HEL cells, previously showed (15); cited from earlier work
[4] = tested on: Jak2-V617F-mediated HEL cell proliferation; conditions: previously demonstrated (14,15); cited from earlier work
HEL cells = assay: Cell proliferation assay (trypan blue exclusion, hemocytometer); format: cell-based, human; conditions: 30 μM G6 or 2% IDPN, 0, 6, 12, 24 or 48 hours, vs DMSO
Protocol: HEL cells were plated in 96-well plates and treated with either 0.25% DMSO, 30 μM G6 or 2% IDPN for the indicated periods of time. Cell viability was then assessed for each sample by trypan blue exclusion staining and hemocytometer.

PARP = assay: Western blotting of HEL cell lysates for PARP cleavage; format: cell-based, human; conditions: HEL cells, pretreated 4 hours, then 30 μM and 60 μM G6 for 24 hours
Protocol: Cells (˜107) were washed with two volumes of ice-cold PBS and then lysed in 0.8 ml of ice-cold RIPA buffer (20 mM Tris pH 7.5, 10% glycerol, 1% Triton X-100, 1% deoxycholic acid, 0.1% SDS, 2.5 mM EDTA, 50 mM NaF, 10 mM Na4P2O7, 4 mM benzamidine, and 10 μg/mL aprotinin). Protein concentrations in the whole cell lysates were determined using a Bradford assay (Bio-Rad). Cell lysates were then resuspended in SDS sample buffer. Whole cell lysates (˜30 μg) were separated by SDS-PAGE and then transferred onto nitrocellulose membranes for analysis by western blotting.
as §1

With `CCC(=C(CC)c1ccc(O)c(CN(CC)CC)c1)c1ccc(O)c(CN(CC)CC)c1` [Compound G6, 4,4′-(hex-3-ene-3,4-diyl)bis(2-((diethylamino)methyl)phenol)] the “cellular distribution of vimentin” value [1] was “aggregated/localized in the perinuclear region of the cell”, the “vimentin protein expression (2-D DIGE)” value (vimentin [2]) was “down regulated; also recorded: significantly downregulated” and the “full-length vimentin (western blot)” value (vimentin [3]; 25 μM, 24 h, vs DMSO) was “disappearance of full-length vimentin”. The “cleavage of full-length vimentin as a function of time” value (vimentin [3]; 25 μM, varying lengths of time) was “cleaved into low molecular weight fragments”, the “cleavage of vimentin intermediate filaments in the viability samples” value (vimentin [3]) was “time-dependent cleavage of vimentin intermediate filaments” and the “effect on full-length vimentin, Jak2 vs non-Jak2 inhibitors” value (shortened to “effect … vs non-Jak2 inhibitors”) (vimentin [3]; 24 hours) was “induced cleavage of vimentin dose-dependently”. For the same molecule, the “cleavage of full-length vimentin as a function of dose” value (vimentin [3]; increasing doses, 24 hours) was “cleaved into low molecular weight fragments”, the “specificity for vimentin over other cytoskeletal proteins (β-actin reprobe)” value (vimentin [3]; same samples reprobed with anti-β-actin antibody) was “specificity of G6 for vimentin over other cytoskeletal proteins such as β-actin” and the “bone marrow vimentin protein level vs DMSO treated mice” value (vimentin protein; 0.1 mg/kg/day intraperitoneal) was “did not produce any observable change”. For the same molecule, the “bone marrow vimentin protein level vs DMSO treated mice” value (vimentin protein; 1 mg/kg/day intraperitoneal) was “clearly reduced the levels of vimentin protein”, the “bone marrow vimentin protein level vs DMSO treated mice” value (vimentin protein; 10 mg/kg/day intraperitoneal) was “clearly reduced the levels of vimentin protein” and the “caspase 3/7 activation” value (caspase 3/7) was “causes caspase 3/7 activation in a time-dependent manner”. The “Jak2-V617F-mediated HEL cell proliferation” value [4] was “inhibits Jak2-V617F-mediated HEL cell proliferation”, the “apoptosis of HEL cells” value [4] was “induces apoptosis” and the viable cell numbers (HEL cells) was “time dependently decreased viable cell numbers”.
For `C[C@@H]1C[C@@H]([C@H](O)CC2CC(=O)NC(=O)C2)C(=O)[C@@H](C)C1` [cycloheximide], the “effect of pretreatment on G6-induced cleavage of vimentin” value (shortened to “effect of pretreatment … of vimentin”) (vimentin [3]; cycloheximide pretreatment 4 h, then increasing concentrations of G6 for 24 hours) was “not be blocked by pretreatment with cycloheximide”.
With `CNc1ccc2oc(C[C@H]3O[C@@]4(CC[C@H]3C)O[C@H]([C@H](C)C(=O)c3ccc[nH]3)[C@H](C)C[C@H]4C)nc2c1C(=O)O` [Compound A23187] the cleavage of vimentin (vimentin [3]; 10 μM, increasing periods of time) was “sufficient to induce cleavage of intermediate filament protein vimentin”.
For Jak Inhibitor I, the “effect … vs non-Jak2 inhibitors” value (vimentin [3]; 24 hours) was “induced cleavage of vimentin dose-dependently”.
For `N#CCCNCCC#N` [IDPN, 3′,3′-iminodipropiontrile, reference compound], the “cleavage of vimentin intermediate filaments in the viability samples” value (vimentin [3]) was “time-dependent cleavage of vimentin intermediate filaments” and the viable cell numbers (HEL cells) was “time dependently decreased viable cell numbers”.
With `N#C/C(=C/c1ccc(O)c(O)c1)C(=O)NCc1ccccc1` [AG490] the “effect … vs non-Jak2 inhibitors” value (vimentin [3]; 24 hours) was “induced cleavage of vimentin dose-dependently”.
For `CC(C)[C@H](NC(=O)N1CCOCC1)C(=O)N[C@@H](CCc1ccccc1)C(=O)CF` [Calpain Inhibitor V, Mu-Val-HPh-CH2F] ({Morpholide-CO}-Val-[hPhe]-CH2F), the “effect of pretreatment … of vimentin” value (vimentin [3]; calpain inhibitor pretreatment 4 hours, then increasing doses of G6 for 24 hours) was “prevented G6-induced cleavage of vimentin in a dose-dependent manner”.
In the case of `COc1cccc(-c2cc(=O)c3ccccc3o2)c1N` [PD98059], the “effect … vs non-Jak2 inhibitors” value (vimentin [3]; 24 hours) is reported as “no effect on full-length vimentin”.
In the case of `COC(=O)C[C@H](NC(=O)[C@H](C)NC(=O)[C@@H](NC(=O)OCc1ccccc1)C(C)C)C(=O)CF` [zVAD-fmk, Z-VAD (OMe)-FMK] (Cbz-Val-Ala-Asp(OMe)-CH2F), the “effect of pretreatment … of vimentin” value (vimentin [3]; pretreated 4 hours, then 30 μM and 60 μM G6 for 24 hours) is reported as “unable to prevent G6-induced cleavage of vimentin” and the “effect of pretreatment on G6-induced cleavage of PARP” value (PARP) is reported as “able to block the G6-induced cleavage of PARP”.
In the case of `CC(=O)OCOC(=O)CN(CC(=O)OCOC(C)=O)c1ccccc1OCCOc1ccccc1N(CC(=O)OCOC(C)=O)CC(=O)OCOC(C)=O` [BAPTA-AM], the “effect of pretreatment … of vimentin” value (vimentin [3]; 10 μM BAPTA-AM 2 hours, then 30 μM G6 for 24 hours) is reported as “sufficient to protect vimentin from G6-induced cleavage”.
In the case of `CC(C)(C)n1nc(-c2ccc(Cl)cc2)c2c(N)ncnc21` [PP2], the “effect … vs non-Jak2 inhibitors” value (vimentin [3]; 24 hours) is reported as “no effect on full-length vimentin”.
